Reference: publication PMC9649612, “Molecular docking and biochemical validation of (-)-syringaresinol-4-O-β-D-apiofuranosyl-(1→2)-β-D-glucopyranoside binding to an allosteric site in monoamine transporters” (Frontiers in Pharmacology, 2022)

How the values were obtained:
[1] = target: T1, hSERT T583A (S2 site mutant) (Homo sapiens, UniProt P31645, T583A); test: APP+ transport in HeLa cells expressing hSERT mutant T583A; format: cell-based; conditions: 2 μM APP+ 5 min, intact HeLa cells, read-out: SAG IC50 for transport
T1 construct: expressed in transfected cells; host or cells: HeLa (ATCC CCL-2), transient, pcDNA3.1
Description: (§1) The mutants used for this study were constructed in the WT background carried by the expression plasmids for hSERT, hDAT, or hNET under the control of CMV promotor in pcDNA3.1 vector, respectively. All mutants were generated using the Mut Express II Fast Mutagenesis Kit (Vazyme) and confirmed by full-length DNA sequencing.
(§2) HeLa cells were cultured in Dulbecco’s Modified Eagle’s Medium supplemented with 10% fetal bovine serum, 100 units/ml penicillin, and 100 μg/ml streptomycin at 37°C in a humidified 5% CO2 incubator. Cells were plated in a 6-well culture plate and grown overnight. Cells at ∼70% confluence were transfected with hSERT, hDAT, or hNET cDNA in pcDNA3.1 by lipofectamine 2000. […] After grown for additional 12–16 h, the cells were assayed for APP^+ or ASP^+ fluorescence image acquisition.
(§3) The cells expressing WT or mutants of hSERT, hDAT, or hNET were wet mounted on polylysine coated glass slides in 12-well plates and applied for the indicated treatments. […] The extent of APP^+ accumulated in the cells was determined by confocal imaging analysis. ASP^+ binding to SERT in the cell membrane was measured with digitonin-permeabilized cells ([Li M. et al., 2022a]). […] After removing excess ASP^+ by rapid washing three times, ASP^+ binding was determined by confocal imaging analysis.
(§4) Images were analyzed using Zen Blue software. […]

[2] = target: T2, hDAT W562A (S2 site mutant) (Homo sapiens, UniProt Q01959, W562A); test: APP+ transport in HeLa cells expressing hDAT mutant W562A; format: cell-based
T2 construct: expressed in transfected cells; host or cells: HeLa
Description: as §1, §2, §3, §4

[3] = target: T3, hSERT P560G (S2 site mutant) (Homo sapiens, UniProt P31645, P560G); test: ASP+ binding in digitonin-permeabilized HeLa cells expressing hSERT P560G; conditions: 10 μM ASP+, read-out: SAG IC50 for binding
T3 construct: expressed in transfected cells; host or cells: HeLa (ATCC CCL-2), transient, pcDNA3.1
Description: as §1, §2, §3, §4

WT-hSERT = target: T4, WT-hSERT (Homo sapiens, UniProt P31645); test: APP+ transport (uptake) in HeLa cells expressing WT-hSERT; format: cell-based; conditions: 2 μM APP+ 5 min, SAG added 5 min prior, intact HeLa cells
T4 construct: expressed in transfected cells; host or cells: HeLa (ATCC CCL-2), transient, pcDNA3.1
Description: (§5) HeLa cells were cultured in Dulbecco’s Modified Eagle’s Medium supplemented with 10% fetal bovine serum, 100 units/ml penicillin, and 100 μg/ml streptomycin at 37°C in a humidified 5% CO2 incubator. Cells were plated in a 6-well culture plate and grown overnight. Cells at ∼70% confluence were transfected with hSERT, hDAT, or hNET cDNA in pcDNA3.1 by lipofectamine 2000. Transfected cells were incubated for 24 h at 37°C with 5% CO2 and then transferred into a 12-well plate placed with polylysine coated slides. After grown for additional 12–16 h, the cells were assayed for APP^+ or ASP^+ fluorescence image acquisition.
as §3
(§6) Images were analyzed using Zen Blue software.
(§7) Nonlinear regression fits of experimental and calculated data were performed with Origin (Origin Lab). […]

[4] = target: T5, hSERT P499G (S2 site mutant) (Homo sapiens, UniProt P31645, P499G); test: APP+ transport in HeLa cells expressing hSERT mutant P499G; format: cell-based; conditions: 2 μM APP+ 5 min, intact HeLa cells, read-out: SAG IC50 for transport
T5 construct: expressed in transfected cells; host or cells: HeLa (ATCC CCL-2), transient, pcDNA3.1
Description: as §1, §2, §3, §4

[5] = target: T6, hSERT S438T (S1 site mutant) (Homo sapiens, UniProt P31645, S438T); test: APP+ transport in HeLa cells expressing hSERT mutant S438T; format: cell-based; conditions: 2 μM APP+ 5 min, intact HeLa cells, read-out: SAG IC50 for transport
T6 construct: expressed in transfected cells; host or cells: HeLa
Description: as §1, §2, §3, §4

[6] = target: T7, hDAT D476N (S2 site mutant) (Homo sapiens, UniProt Q01959, D476N); test: APP+ transport in HeLa cells expressing hDAT mutant D476N; format: cell-based; conditions: intact HeLa cells, read-out: SAG IC50
T7 construct: expressed in transfected cells; host or cells: HeLa
Description: as §1, §2, §3, §4

[7] = target: T8, hSERT T497A (S2 site mutant) (Homo sapiens, UniProt P31645, T497A); test: ASP+ binding in digitonin-permeabilized HeLa cells expressing hSERT T497A; conditions: 10 μM ASP+, read-out: SAG IC50 for binding
T8 construct: expressed in transfected cells; host or cells: HeLa (ATCC CCL-2), transient, pcDNA3.1
Description: as §1, §2, §3, §4

[8] = target: T9, hSERT I172F (S1 site mutant) (Homo sapiens, UniProt P31645, I172F); test: APP+ transport in HeLa cells expressing hSERT mutant I172F; format: cell-based; conditions: 2 μM APP+ 5 min, intact HeLa cells, read-out: SAG IC50 for transport
T9 construct: expressed in transfected cells; host or cells: HeLa
Description: as §1, §2, §3, §4

WT-hNET = target: T10, WT-hNET (Homo sapiens, UniProt P23975); test: APP+ transport (uptake) in HeLa cells expressing WT-hNET; format: cell-based; conditions: WT hNET; APP+ transport, intact HeLa cells; read-out: SAG IC50
T10 construct: expressed in transfected cells; host or cells: HeLa
Description: as §5, §3, §6, §7

[9] = target: T8, hSERT T497A (S2 site mutant); test: APP+ transport in HeLa cells expressing hSERT mutant T497A; format: cell-based; conditions: 2 μM APP+ 5 min, intact HeLa cells, read-out: SAG IC50 for transport
Description: as §1, §2, §3, §4

[10] = target: T11, hNET D473N (S2 site mutant) (Homo sapiens, UniProt P23975, D473N); test: APP+ transport in HeLa cells expressing hNET mutant D473N; format: cell-based
T11 construct: expressed in transfected cells; host or cells: HeLa
Description: as §1, §5
(§8) The cells expressing WT or mutants of hSERT, hDAT, or hNET were wet mounted on polylysine coated glass slides in 12-well plates and applied for the indicated treatments. In brief, the cells were washed twice with 500 μl KRH buffer containing 20 mM HEPES, pH 7.4, 120 mM NaCl, 1.3 mM KCl, 2.2 mM CaCl2, 1.2 mM MgSO4, and 0.1% (w/v) glucose. […] Excess APP^+ was then removed by rapid washing three times with 500 μl KRH buffer. The extent of APP^+ accumulated in the cells was determined by confocal imaging analysis. ASP^+ binding to SERT in the cell membrane was measured with digitonin-permeabilized cells ([Li M. et al., 2022a]). […] After removing excess ASP^+ by rapid washing three times, ASP^+ binding was determined by confocal imaging analysis.
as §6
(§9) Nonlinear regression fits of experimental and calculated data were performed with Origin (Origin Lab). The statistical analysis given was from multiple experiments. Data with error bars in the figures represent the mean ± SD for at least 10 measurements per condition in one experiment or the mean ± SEM from at least three experiments as indicated, respectively. […]

[11] = target: T12, hNET K541G (S2 site mutant) (Homo sapiens, UniProt P23975, K541G); test: APP+ transport in HeLa cells expressing hNET mutant K541G; format: cell-based; conditions: intact HeLa cells, read-out: SAG IC50
T12 construct: expressed in transfected cells; host or cells: HeLa
Description: as §1, §2, §3, §4

[12] = target: T13, hNET T474Q (S2 site mutant) (Homo sapiens, UniProt P23975, T474Q); test: APP+ transport in HeLa cells expressing hNET mutant T474Q; format: cell-based
T13 construct: expressed in transfected cells; host or cells: HeLa
Description: as §1, §5, §8, §6, §9

[13] = target: T14, hSERT P561G (S2 site mutant) (Homo sapiens, UniProt P31645, P561G); test: ASP+ binding in digitonin-permeabilized HeLa cells expressing hSERT P561G; conditions: 10 μM ASP+, read-out: SAG IC50 for binding
T14 construct: expressed in transfected cells; host or cells: HeLa (ATCC CCL-2), transient, pcDNA3.1
Description: as §1, §2, §3, §4

[14] = target: T15, hNET L563A (S2 site mutant) (Homo sapiens, UniProt P23975, L563A); test: APP+ transport in HeLa cells expressing hNET mutant L563A; format: cell-based; conditions: intact HeLa cells, read-out: SAG IC50
T15 construct: expressed in transfected cells; host or cells: HeLa
Description: as §1, §2, §3, §4

[15] = target: T16, hSERT Y95F (S1 site mutant) (Homo sapiens, UniProt P31645, Y95F); test: APP+ transport in HeLa cells expressing hSERT mutant Y95F; format: cell-based
T16 construct: expressed in transfected cells; host or cells: HeLa (ATCC CCL-2), transient, pcDNA3.1
Description: as §1, §2, §3, §4

[16] = target: T17, hNET Q314A (S2 site mutant) (Homo sapiens, UniProt P23975, Q314A); test: APP+ transport in HeLa cells expressing hNET mutant Q314A; format: cell-based; conditions: intact HeLa cells, read-out: SAG IC50
T17 construct: expressed in transfected cells; host or cells: HeLa
Description: as §1, §2, §3, §4

WT-hDAT = target: T18, WT-hDAT (Homo sapiens, UniProt Q01959); test: APP+ transport (uptake) in HeLa cells expressing WT-hDAT; format: cell-based; conditions: WT hDAT; APP+ transport, intact HeLa cells; read-out: SAG IC50
T18 construct: expressed in transfected cells; host or cells: HeLa
Description: as §5, §3, §6, §7

[17] = target: T19, hSERT Q562N (S2 site mutant) (Homo sapiens, UniProt P31645, Q562N); test: APP+ transport in HeLa cells expressing hSERT mutant Q562N; format: cell-based; conditions: 2 μM APP+ 5 min, intact HeLa cells, read-out: SAG IC50 for transport
T19 construct: expressed in transfected cells; host or cells: HeLa (ATCC CCL-2), transient, pcDNA3.1
Description: as §1, §2, §3, §4

T11 sequence (P23975 whole entry D473N): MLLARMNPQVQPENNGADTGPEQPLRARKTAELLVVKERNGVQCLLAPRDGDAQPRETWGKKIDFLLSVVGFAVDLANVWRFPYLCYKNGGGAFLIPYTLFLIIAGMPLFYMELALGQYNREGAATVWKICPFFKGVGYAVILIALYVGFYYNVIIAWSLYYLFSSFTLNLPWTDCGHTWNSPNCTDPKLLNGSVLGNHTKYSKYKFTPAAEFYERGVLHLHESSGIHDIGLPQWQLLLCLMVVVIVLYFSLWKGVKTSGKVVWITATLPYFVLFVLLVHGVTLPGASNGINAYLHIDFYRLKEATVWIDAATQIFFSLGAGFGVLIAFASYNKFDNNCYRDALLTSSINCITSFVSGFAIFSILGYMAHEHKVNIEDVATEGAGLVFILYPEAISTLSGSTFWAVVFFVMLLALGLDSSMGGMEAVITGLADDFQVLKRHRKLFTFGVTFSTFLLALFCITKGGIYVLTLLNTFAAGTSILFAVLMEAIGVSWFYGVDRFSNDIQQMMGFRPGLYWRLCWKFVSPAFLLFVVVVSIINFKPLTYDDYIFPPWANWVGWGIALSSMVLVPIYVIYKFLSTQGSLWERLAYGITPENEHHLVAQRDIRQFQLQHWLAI
T13 sequence (P23975 whole entry T474Q): as the sequence (P23975 whole entry D473N) above, with N473D, T474Q counted along it
T2 sequence (Q01959 whole entry W562A): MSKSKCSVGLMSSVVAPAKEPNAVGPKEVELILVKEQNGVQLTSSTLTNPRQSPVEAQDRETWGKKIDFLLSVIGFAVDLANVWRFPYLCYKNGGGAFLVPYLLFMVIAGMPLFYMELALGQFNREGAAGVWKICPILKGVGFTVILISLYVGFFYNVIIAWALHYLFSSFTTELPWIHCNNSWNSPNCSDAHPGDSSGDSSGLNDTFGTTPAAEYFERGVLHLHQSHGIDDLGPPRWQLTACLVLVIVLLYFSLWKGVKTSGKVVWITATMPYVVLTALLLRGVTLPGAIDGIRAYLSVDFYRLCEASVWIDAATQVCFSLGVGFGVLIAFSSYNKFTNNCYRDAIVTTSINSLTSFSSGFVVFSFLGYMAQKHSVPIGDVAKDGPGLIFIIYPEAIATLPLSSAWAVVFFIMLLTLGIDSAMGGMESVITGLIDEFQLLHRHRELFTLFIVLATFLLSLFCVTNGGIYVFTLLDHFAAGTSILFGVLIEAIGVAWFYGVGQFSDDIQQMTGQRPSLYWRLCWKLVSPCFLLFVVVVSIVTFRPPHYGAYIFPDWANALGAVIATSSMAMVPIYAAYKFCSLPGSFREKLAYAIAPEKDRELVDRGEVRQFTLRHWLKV
T12 sequence (P23975 whole entry K541G): as the sequence (P23975 whole entry D473N) above, with N473D, K541G counted along it
T7 sequence (Q01959 whole entry D476N): as the sequence (Q01959 whole entry W562A) above, with D476N, A562W counted along it
T17 sequence (P23975 whole entry Q314A): as the sequence (P23975 whole entry D473N) above, with Q314A, N473D counted along it
T10 sequence (P23975 whole entry): as the sequence (P23975 whole entry D473N) above, with N473D counted along it
T15 sequence (P23975 whole entry L563A): as the sequence (P23975 whole entry D473N) above, with N473D, L563A counted along it
T18 sequence (Q01959 whole entry): as the sequence (Q01959 whole entry W562A) above, with A562W counted along it

(-)-Syringaresinol-4-O-β-D-apiofuranosyl-(1→2)-β-D-glucopyranoside [SAG]
IC50 [1]: > 1000 µM | Increase in SAG IC50 compared with WT ([2]; hDAT W562A vs WT-hDAT): more than 30 fold | IC50 ([2]; hDAT W562A, intact HeLa cells, read-out: SAG IC50): > 1000 µM | IC50 [3]: 324 ± 28 µM | IC50 (WT-hSERT): 2.54 ± 0.13 µM | IC50 [4]: 88.1 ± 2.8 µM | IC50 [5]: 10.3 ± 0.49 µM | IC50 [6]: 93.8 ± 3.9 µM | IC50 [7]: 152 ± 12 µM | IC50 [8]: 12.5 ± 0.97 µM | IC50 (WT-hNET): 40.1 ± 2.8 µM | IC50 [9]: 111 ± 2 µM | Change in SAG inhibition potency compared to WT ([10]; hNET D473N vs WT-hNET): little change | Decrease in SAG inhibition potency compared with WT ([10]; hNET D473N vs WT-hNET): less than 3 folds | IC50 ([10]; hNET D473N, intact HeLa cells, read-out: SAG IC50): 42.7 ± 4.7 µM | IC50 [11]: 79.8 ± 3.3 µM | Change in SAG inhibition potency compared to WT ([12]; hNET T474Q vs WT-hNET): little change | Decrease in SAG inhibition potency compared with WT ([12]; hNET T474Q vs WT-hNET): less than 3 folds | IC50 ([12]; hNET T474Q, intact HeLa cells, read-out: SAG IC50): 49.3 ± 7.9 µM | IC50 [13]: > 1000 µM | IC50 [14]: 304 ± 12 µM | Effect of mutation on SAG inhibition potency ([15]; hSERT Tyr95 to Phe (S1) vs WT-hSERT, APP+ transport): little effect | IC50 ([15]; hSERT Y95F (S1), 2 μM APP+ 5 min, intact HeLa cells, read-out: SAG IC50 for transport): 4.45 ± 0.17 µM | IC50 [16]: 4.37 ± 1.06 µM | IC50 (WT-hDAT): 31.9 ± 2.8 µM | IC50 [17]: 289 ± 11 µM
